What all share (assay type): in vivo
Assay [1] relates to velvetleaf (Abutilon theophrasti). The experiment in a line: Test Example 1: foliage treatment of velvetleaf in pots, herbicidal activity. The following applies: emulsifiable concentrate sprayed over the foliage, dosage of 2000 g/ha, 1000 liters per hectare, plants 14 days after seeding, examined after 8 days in greenhouse.
The test system is the same in assay [2]. The assay is described as follows: Test Example 3: soil surface treatment, velvetleaf seeded in pots, herbicidal activity. As to conditions: emulsifiable concentrate sprayed over the surface of the soil after seeding, dosage of 2000 g/ha, 1000 liters per hectare, examined after 9 days in greenhouse.
The test system of assay [3] is barnyardgrass (Echinochloa oryzicola). The experiment in a line: Test Example 4: flooded paddy field treatment of barnyardgrass in pots, herbicidal activity. The following applies: emulsifiable concentrate applied on the water surface of flooded pots, dosage of 1000 g/ha, 50 liters per are, plants 12 days after seeding, examined after 9 days in greenhouse.

In the case of `Cn1c(C(F)(F)F)cc(=O)n(-c2coc3ccccc23)c1=O` [Compound 1-1], the “herbicidal activity: growth of velvetleaf” value in assay [1] is “completely inhibited the growth”. The “herbicidal activity: germination of velvetleaf” value (shortened to “herbicidal activity: germination”) in assay [2] is reported as “completely inhibited the germination”. Further, the “herbicidal activity: growth of barnyardgrass” value in assay [3] is on record as “completely inhibited the growth”.
Turning to `Cn1c(C(F)(F)F)cc(=O)n(-c2coc3c(Cl)cc(Cl)cc23)c1=O` [Compound 1-2, 3-(5,7-Dichlorobenzo[b]furan-3-yl)-1-methyl-6-(trifluoromethyl)-1,2,3,4-tetrahydropyrimidine-2,4-dione], the “herbicidal activity: growth of velvetleaf” value in assay [1] is “completely inhibited the growth”. In assay [2], the “herbicidal activity: germination” value was “completely inhibited the germination”. The “herbicidal activity: growth of barnyardgrass” value in assay [3] is “completely inhibited the growth”.
On to `Cn1c(C(F)(F)F)cc(=O)n(-c2csc3ccccc23)c1=O` [Compound 1-3], for which, in assay [1], the “herbicidal activity: growth of velvetleaf” value is listed as “completely inhibited the growth”. In addition, the “herbicidal activity: germination” value in assay [2] is “completely inhibited the germination”. In addition, the “herbicidal activity: growth of barnyardgrass” value in assay [3] was “completely inhibited the growth”.
In the case of `Cn1c(C(F)(F)F)cc(=O)n(-c2coc3ccc(Cl)cc23)c1=O` [Compound 1-4], the “herbicidal activity: growth of velvetleaf” value in assay [1] is “completely inhibited the growth”. Further, the “herbicidal activity: germination” value in assay [2] is on record as “completely inhibited the germination”. Moreover, the “herbicidal activity: growth of barnyardgrass” value in assay [3] is “completely inhibited the growth”.
On to `COc1ccc2occ(-n3c(=O)cc(C(F)(F)F)n(C)c3=O)c2c1` [Compound 1-5, 3-(5-Methoxybenzo[b]furan-3-yl)-1-methyl-6-(trifluoromethyl)-1,2,3,4-tetrahydropyrimidine-2,4-dione], for which the “herbicidal activity: growth of velvetleaf” value in assay [1] is listed as “completely inhibited the growth”. Besides, the “herbicidal activity: germination” value in assay [2] is reported as “completely inhibited the germination”. Moreover, in assay [3], the “herbicidal activity: growth of barnyardgrass” value was “completely inhibited the growth”.
On to `CNc1ccc2occ(-n3c(=O)cc(C(F)(F)F)n(C)c3=O)c2c1` [Compound 1-8], for which the “herbicidal activity: growth of velvetleaf” value in assay [1] is “completely inhibited the growth”. Besides, the “herbicidal activity: germination” value in assay [2] is “completely inhibited the germination”. Moreover, in assay [3], the “herbicidal activity: growth of barnyardgrass” value was “completely inhibited the growth”.
Turning to `CN(C)c1ccc2occ(-n3c(=O)cc(C(F)(F)F)n(C)c3=O)c2c1` [Compound 1-9], in assay [1], the “herbicidal activity: growth of velvetleaf” value is reported as “completely inhibited the growth”. Moreover, the “herbicidal activity: germination” value in assay [2] is recorded as “completely inhibited the germination”. For the same molecule, the “herbicidal activity: growth of barnyardgrass” value in assay [3] is “completely inhibited the growth”.
Regarding `Cn1c(C(F)(F)F)cc(=O)n(-c2coc3ccc(NS(C)(=O)=O)cc23)c1=O` [Compound 1-10], the “herbicidal activity: growth of velvetleaf” value in assay [1] is “completely inhibited the growth”. In addition, in assay [2], the “herbicidal activity: germination” value is reported as “completely inhibited the germination”. Further, the “herbicidal activity: growth of barnyardgrass” value in assay [3] is “completely inhibited the growth”.
For the molecule `CCOC(=O)C(C)Nc1ccc2occ(-n3c(=O)cc(C(F)(F)F)n(C)c3=O)c2c1` (stereo not drawn) [Compound 1-11], the “herbicidal activity: growth of velvetleaf” value in assay [1] was “completely inhibited the growth”. In addition, in assay [2], the “herbicidal activity: germination” value is “completely inhibited the germination”. For the same molecule, the “herbicidal activity: growth of barnyardgrass” value in assay [3] was “completely inhibited the growth”.
In the case of `CC(=O)Nc1ccc2occ(-n3c(=O)cc(C(F)(F)F)n(C)c3=O)c2c1` [Compound 1-24], in assay [1], the “herbicidal activity: growth of velvetleaf” value is given as “completely inhibited the growth”. Moreover, in assay [2], the “herbicidal activity: germination” value is “completely inhibited the germination”.
On the same counts, the results for `CC(=O)N(C)c1ccc2occ(-n3c(=O)cc(C(F)(F)F)n(C)c3=O)c2c1` [Compound 1-28] are “completely inhibited the growth” and “completely inhibited the germination”.
As for `Cn1c(C(F)(F)F)cc(=O)n(-c2coc3ccc(Br)cc23)c1=O` [Compound 1-75], in assay [1], the “herbicidal activity: growth of velvetleaf” value is “completely inhibited the growth”. The “herbicidal activity: germination” value in assay [2] is “completely inhibited the germination”. The “herbicidal activity: growth of barnyardgrass” value in assay [3] is “completely inhibited the growth”.
As to `Cn1c(C(F)(F)F)cc(=O)n(-c2coc3cc([N+](=O)[O-])c(O)cc23)c1=O` [Compound 1-82], in assay [1], the “herbicidal activity: growth of velvetleaf” value is reported as “completely inhibited the growth”. The “herbicidal activity: germination” value in assay [2] was “completely inhibited the germination”. Besides, the “herbicidal activity: growth of barnyardgrass” value in assay [3] is listed as “completely inhibited the growth”.
Take `COc1cc2c(-n3c(=O)cc(C(F)(F)F)n(C)c3=O)coc2cc1Cl` [Compound 1-84, 3-(6-Chloro-5-methoxybenzo[b]furan-3-yl)-1-methyl-6-(trifluoromethyl)-1,2,3,4-tetrahydropyrimidine-2,4-dione]: the “herbicidal activity: growth of velvetleaf” value in assay [1] is “completely inhibited the growth”. The “herbicidal activity: germination” value in assay [2] is on record as “completely inhibited the germination”. In assay [3], the “herbicidal activity: growth of barnyardgrass” value is “completely inhibited the growth”.
For `COc1cc2c(-n3c(=O)cc(C(F)(F)F)n(C)c3=O)coc2cc1[N+](=O)[O-]` [Compound 1-86, 3-(5-Methoxy-6-nitrobenzo[b]furan-3-yl)-1-methyl-6-(trifluoromethyl)-1,2,3,4-tetrahydropyrimidine-2,4-dione], the “herbicidal activity: growth of velvetleaf” value in assay [1] is given as “completely inhibited the growth”. Moreover, the “herbicidal activity: germination” value in assay [2] is “completely inhibited the germination”. Further, the “herbicidal activity: growth of barnyardgrass” value in assay [3] is reported as “completely inhibited the growth”.
As to `CCOC(=O)C(C)Oc1ccc2occ(-n3c(=O)cc(C(F)(F)F)n(C)c3=O)c2c1` (stereo not drawn) [Compound 1-127, Ethyl 2-({3-[3-methyl-2,6-dioxo-4-(trifluoromethyl)-1,2,3,6-tetrahydropyrimidin-1-yl]benzo[b]furan-5-yl}oxy)propanoate], the “herbicidal activity: growth of velvetleaf” value in assay [1] was “completely inhibited the growth”. For the same molecule, in assay [2], the “herbicidal activity: germination” value is given as “completely inhibited the germination”. The “herbicidal activity: growth of barnyardgrass” value in assay [3] is “completely inhibited the growth”.
For the molecule `CCOC(=O)C(C)Oc1cc2c(-n3c(=O)cc(C(F)(F)F)n(C)c3=O)coc2cc1Cl` (stereo not drawn) [Compound 1-129, Ethyl 2-({6-chloro-3-[3-methyl-2,6-dioxo-4-(trifluoromethyl)-1,2,3,6-tetrahydropyrimidin-1-yl]benzo[b]furan-5-yl}oxy)propanoate], the “herbicidal activity: growth of velvetleaf” value in assay [1] is reported as “completely inhibited the growth”. In addition, the “herbicidal activity: germination” value in assay [2] was “completely inhibited the germination”. Besides, the “herbicidal activity: growth of barnyardgrass” value in assay [3] is “completely inhibited the growth”.
As to `CCOC(=O)C(C)Oc1cc2c(-n3c(=O)cc(C(F)(F)F)n(C)c3=O)coc2cc1[N+](=O)[O-]` (stereo not drawn) [Compound 1-131], the “herbicidal activity: growth of velvetleaf” value in assay [1] is reported as “completely inhibited the growth”. In addition, the “herbicidal activity: germination” value in assay [2] was “completely inhibited the germination”. Moreover, the “herbicidal activity: growth of barnyardgrass” value in assay [3] is on record as “completely inhibited the growth”.
As for `CSc1cc2c(-n3c(=O)cc(C(F)(F)F)n(C)c3=O)coc2cc1[N+](=O)[O-]` [Compound 1-201, 1-Methyl-3-[5-(methylthio)-6-nitrobenzo[b]furan-3-yl]-6-(trifluoromethyl)-1,2,3,4-tetrahydropyrimidine-2,4-dione], the “herbicidal activity: growth of velvetleaf” value in assay [1] is given as “completely inhibited the growth”. In addition, the “herbicidal activity: germination” value in assay [2] is “completely inhibited the germination”. For the same molecule, in assay [3], the “herbicidal activity: growth of barnyardgrass” value is recorded as “completely inhibited the growth”.
On to `CCOC(=O)C(C)Sc1cc2c(-n3c(=O)cc(C(F)(F)F)n(C)c3=O)coc2cc1[N+](=O)[O-]` (stereo not drawn) [Compound 1-246, Ethyl 2-({3-[3-methyl-2,6-dioxo-4-(trifluoromethyl)-1,2,3,6-tetrahydropyrimidin-1-yl]-6-nitrobenzo[b]furan-5-yl}thio)propanoate], for which, in assay [1], the “herbicidal activity: growth of velvetleaf” value is listed as “completely inhibited the growth”. In assay [2], the “herbicidal activity: germination” value is listed as “completely inhibited the germination”. Further, the “herbicidal activity: growth of barnyardgrass” value in assay [3] is on record as “completely inhibited the growth”.
On to `Cn1c(C(F)(F)F)cc(=O)n(-c2coc3cc([N+](=O)[O-])ccc23)c1=O` [Compound 1-282], for which the “herbicidal activity: growth of velvetleaf” value in assay [1] is “completely inhibited the growth”. The “herbicidal activity: germination” value in assay [2] is listed as “completely inhibited the germination”. The “herbicidal activity: growth of barnyardgrass” value in assay [3] is “completely inhibited the growth”.
Regarding `Cn1c(C(F)(F)F)cc(=O)n(-c2coc3ccc(C(N)=O)cc23)c1=O` [Compound 1-293], the “herbicidal activity: growth of velvetleaf” value in assay [1] was “completely inhibited the growth”. Further, the “herbicidal activity: germination” value in assay [2] was “completely inhibited the germination”. The “herbicidal activity: growth of barnyardgrass” value in assay [3] is on record as “completely inhibited the growth”.
On to `COC(=O)c1ccc2occ(-n3c(=O)cc(C(F)(F)F)n(C)c3=O)c2c1` [Compound 1-303, Methyl 3-[3-methyl-2,6-dioxo-4-(trifluoromethyl)-1,2,3,6-tetrahydropyrimidin-1-yl]benzo[b]furan-5-carboxylate], for which the “herbicidal activity: growth of velvetleaf” value in assay [1] is reported as “completely inhibited the growth”. Further, the “herbicidal activity: germination” value in assay [2] is on record as “completely inhibited the germination”. Further, the “herbicidal activity: growth of barnyardgrass” value in assay [3] is on record as “completely inhibited the growth”.
In the case of `Cn1c(C(F)(F)F)cc(=O)n(-c2csc3cc(Cl)ccc23)c1=O` [Compound 1-864], the “herbicidal activity: growth of barnyardgrass” value in assay [3] is “completely inhibited the growth”.
For the molecule `O=C1C2=C(CCCC2)C(=O)N1c1noc2ccccc12` [Compound 2-4], the “herbicidal activity: growth of velvetleaf” value in assay [1] was “completely inhibited the growth”.

These data come from US6586368B1, “Condensed heterocylic compounds and herbicides containing them” (Sumitomo Chemical Company, Limited, priority 1998, dated 2003).
